Assay: photoluminescence quantum yield (fraction); solvent given as SMILES

CCCCCCC(CCCCCC)N1C(=O)c2cccc3c(-c4ccc(OC)c5ccccc45)ccc(c23)C1=O
photoluminescence quantum yield (in CCCCCC): 0.33
photoluminescence quantum yield (in CCCCCCCCCCCCCC): 0.34
photoluminescence quantum yield (in CCCCCCCCCCCO): 0.23
photoluminescence quantum yield (in CCCCO): 0.088
photoluminescence quantum yield (in CN(C)C=O): 0.13
photoluminescence quantum yield (in Cc1ccccc1): 0.18
photoluminescence quantum yield (in ClC(Cl)Cl): 0.39

COc1ccc(/C=C/C=C/C2=NC3C(=O)NC(N)=NC3N2[C@H]2C[C@H](O)[C@@H](CO)O2)cc1 (stereo partly specified)
photoluminescence quantum yield (in C1COCCO1): 0.71
photoluminescence quantum yield (in CC#N): 0.68
photoluminescence quantum yield (in CO): 0.56

Fc1nc(F)c(F)c(/C=C2/C(c3c(F)c(F)nc(F)c3F)=Cc3ccccc32)c1F
photoluminescence quantum yield (in CC#N): 0.01

COC(=O)c1cc(=O)n(C)c2cc(-c3ccc(Oc4ccccc4)cc3)sc12
photoluminescence quantum yield (in CC#N): 0.63
photoluminescence quantum yield (in ClCCl): 0.83

F[B-]1(F)OC(c2ccc(Br)cc2)=Cc2c3ccccc3c3ccccc3[n+]21
photoluminescence quantum yield (in ClC(Cl)Cl): 0.152

COC(=O)c1cc(=O)n(C)c2cc(-c3ccc(N(C)C)cc3)sc12
photoluminescence quantum yield (in CC#N): 0.08
photoluminescence quantum yield (in ClCCl): 0.82

COc1cc(C=O)cc(-c2[nH]c(=O)n3c2-c2ccccc2C3=O)c1O
photoluminescence quantum yield (in CC#N): 0.33
photoluminescence quantum yield (in CO): 0.04
photoluminescence quantum yield (in ClCCl): 0.93

Cc1c(C(=O)c2ccc3c4cccc5cccc(c6cccc2c63)c54)c2ccc3cccc4c5cccc6ccc1c(c65)c2c34
photoluminescence quantum yield (in ClCCl): 0.069

CCCCCCCCOc1ccc(-c2c3c4n(c(-c5ccc(OCCCCCCCC)cc5)c3c3n2[B-](F)(F)[n+]2c(ccc5cc(C(C)(C)C)ccc52)C=3C#N)[B-](F)(F)[n+]2c(ccc3cc(C(C)(C)C)ccc32)C=4C#N)cc1
photoluminescence quantum yield (in ClC(Cl)Cl): 0.59

CC1(C)c2ccccc2N(c2cc3c4ccccc4n4c5ccccc5c(c2)c34)c2ccccc21
photoluminescence quantum yield (in O=P(c1ccccc1)(c1ccccc1)c1ccccc1Oc1ccccc1P(=O)(c1ccccc1)c1ccccc1): 0.95

CC(C)(C)c1cc(-c2ccc3c(-c4cc(C(C)(C)C)cc(C(C)(C)C)c4)cc4c5cc(-c6cc(C(C)(C)C)cc(C(C)(C)C)c6)ccc5c(-c5cc(C(C)(C)C)cc(C(C)(C)C)c5)cc4c3c2)cc(C(C)(C)C)c1
photoluminescence quantum yield (in ClCCl): 0.609

Cc1cccc(-c2cccc(C)c2)c1
photoluminescence quantum yield (in C1CCCCC1): 0.28

Nc1ccc2cn[nH]c2c1
photoluminescence quantum yield (in C1CCCCC1): 0.34
photoluminescence quantum yield (in CC#N): 0.33
photoluminescence quantum yield (in CO): 0.31
photoluminescence quantum yield (in O): 0.39

Fc1c(F)c(F)c([B-]2(c3c(F)c(F)c(F)c(F)c3F)Oc3c(ccc4c5c(ccc34)C=[N+](c3ccccc3)[B-](c3c(F)c(F)c(F)c(F)c3F)(c3c(F)c(F)c(F)c(F)c3F)O5)C=[N+]2c2ccccc2)c(F)c1F
photoluminescence quantum yield (in Cc1ccccc1): 0.81
photoluminescence quantum yield (in ClCCl): 0.8

O=c1c2ccccc2c2c3c(cccc13)c(-c1ccccc1)c1c3cccc4cccc(c43)c12
photoluminescence quantum yield (in CC#N): 0.91
photoluminescence quantum yield (in CO): 0.97

COc1nc(Nc2ccc3c4cccc5cccc(c6cccc2c63)c54)nc(OC)n1
photoluminescence quantum yield (in C1COCCO1): 0.51
photoluminescence quantum yield (in CC#N): 0.43
photoluminescence quantum yield (in CCCCOCCCC): 0.46
photoluminescence quantum yield (in CCOC(C)=O): 0.47

COc1ccc(C2=C3C=C(/C=C/C(=O)OC(C)(C)C)C=[N+]3[B-](F)(F)n3cccc32)cc1
photoluminescence quantum yield (in ClCCl): 0.13

CC(C)(C)OC(=O)CN1CCN(c2ccc3c(-c4ccc(I)cc4)c4ccc(=[N+]5CCN(CC(=O)OC(C)(C)C)CC5)cc-4oc3c2)CC1
photoluminescence quantum yield (in ClCCl): 0.007

CC(C)[Si](C#Cc1c2cc3ccccc3cc2c(C#C[Si](C(C)C)(C(C)C)C(C)C)c2nc3cc4c(cc3nc12)C1c2ccccc2C4c2ccccc21)(C(C)C)C(C)C
photoluminescence quantum yield (in CCCCCC): 0.45
photoluminescence quantum yield (in ClCCl): 0.11

CC1(C)C(/C=C/C=C/C=C/C=C2/N(c3ccc(S(=O)(=O)[O-])cc3)c3ccc(S(=O)(=O)[O-])cc3C2(C)C)=[N+](c2ccc(S(=O)(=O)[O-])cc2)c2ccc(S(=O)(=O)[O-])cc21
photoluminescence quantum yield (in CO): 0.47
photoluminescence quantum yield (in O): 0.21

COc1ccccc1C1=[N+]2C(=Cc3c4cc5ccccc5cc4c(-c4ccccc4OC)n3[B-]2(F)F)c2cc3ccccc3cc21
photoluminescence quantum yield (in C1CCOC1): 0.29

Cc1ccc(/C(C#N)=C/c2cc(/C=C(\C#N)c3ccc(C)cc3)c(-c3ccc(N(c4ccccc4)c4ccccc4)cc3)cc2-c2ccc(N(c3ccccc3)c3ccccc3)cc2)cc1
photoluminescence quantum yield (in C1CCCCC1): 0.093
photoluminescence quantum yield (in C1CCOC1): 0.045
photoluminescence quantum yield (in CCCCCC): 0.121
photoluminescence quantum yield (in CCOC(C)=O): 0.049
photoluminescence quantum yield (in Cc1ccccc1): 0.06
photoluminescence quantum yield (in ClC(Cl)Cl): 0.048
photoluminescence quantum yield (in ClCCl): 0.028

O=c1cc2cc(O)c3c(O)ccc4ccc(o1)c2c43
photoluminescence quantum yield (in CC1CCCO1): 0.52

CCOC(=O)C1=C(C)NC2=C(C(=O)c3ccccc32)C1c1ccc(N(C)C)cc1 (stereo unspecified)
photoluminescence quantum yield (in C1CCOC1): 0.34
photoluminescence quantum yield (in C1COCCO1): 0.43
photoluminescence quantum yield (in CC#N): 0.3
photoluminescence quantum yield (in CCO): 0.092
photoluminescence quantum yield (in CN(C)C=O): 0.33
photoluminescence quantum yield (in CO): 0.035
photoluminescence quantum yield (in CS(C)=O): 0.29
photoluminescence quantum yield (in ClC(Cl)(Cl)Cl): 0.16
photoluminescence quantum yield (in ClC(Cl)Cl): 0.44
photoluminescence quantum yield (in ClCCl): 0.4

Reference: the Deep4Chem optical property database
